The values that follow come from patent US20250163057A1, “DCN-1 MODULATING COMPOUNDS AND METHODS OF USE THEREOF” (Cellarity, Inc., priority 2023, published 2025).

The target in assay [1] is DCN1 protein (Homo sapiens (Human), UniProt Q96GG9). In words: Intact Protein MS Analysis with the RapidFire-TOF System (covalent adduct formation). It is filed as binding. The settings on record: MS Emax; 400 nM DCN1, 3 hours at room temperature. The essentials: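 Tag-cleaved human DCN1 (400 nM) expressed in E. coli, in 25 mM Tris-HCl, 200 mM NaCl, 1 mM DTT, was incubated with 11 compound concentrations for 3 h at room temperature and quenched with 0.2% formic acid. Intact-protein Q-TOF MS with deconvolution detected the compound adduct mass.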
DCN1 protein, sequence (Q96GG9 whole entry): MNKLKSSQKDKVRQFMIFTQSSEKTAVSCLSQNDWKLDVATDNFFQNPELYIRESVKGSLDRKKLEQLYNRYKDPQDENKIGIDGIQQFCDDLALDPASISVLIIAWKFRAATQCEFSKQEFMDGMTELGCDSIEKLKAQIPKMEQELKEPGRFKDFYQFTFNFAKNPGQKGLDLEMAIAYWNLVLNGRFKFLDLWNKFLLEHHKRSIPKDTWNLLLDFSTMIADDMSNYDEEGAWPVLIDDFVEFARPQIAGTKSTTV

For assay [2], the system named is Cullin-3 (CUL3) neddylation. Description: AlphaLISA assay for Cullin-3 (CUL3) neddylation in TF 1 cells. It is filed as cell-based. The settings on record: 3 hours treatment. The essentials: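 Neddylated CUL3 was quantified by AlphaLISA in lysates of TF 1 cells exposed for 3 h to test compound in IMDM without supplements. Percent inhibition set between vehicle and 1 μM DI-1548 positive control; IC50 derived by Hill-equation fitting of dose-response curves.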

Assay [3] deals with DCN1 (DCUND1) protein PONY domain (Homo sapiens (Human), UniProt Q96GG9). Description: TR-FRET assay, DCN1 binding with FAM-labeled probe. The essentials: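 Biotinylated DCN1 PONY domain, labeled with streptavidin-Tb, was competed against a FAM-labeled non-covalent DCN1 inhibitor probe in buffer with TritonX and 200 mM NaCl. Conditions were 5 nM DCN1 with 20 nM FAM-probe, or 0.31 nM DCN1 with 100 nM FAM-plus 800 nM unlabeled probe. The TR-FRET ratio was read at 1, 5 and 24 h (0.1% DMSO).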
DCN1 (DCUND1) protein PONY domain, sequence (Q96GG9 60-248): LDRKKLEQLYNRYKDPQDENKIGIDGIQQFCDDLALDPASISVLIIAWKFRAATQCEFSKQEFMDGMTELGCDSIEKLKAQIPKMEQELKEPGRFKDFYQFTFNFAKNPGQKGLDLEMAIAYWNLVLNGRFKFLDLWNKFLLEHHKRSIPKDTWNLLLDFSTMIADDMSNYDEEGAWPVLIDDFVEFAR

Setting [4] is: 24 hr after treatment with compound, read-out: TR FRET IC50 24 hr.
[5] abbreviates: read-out: TR FRET IC50 1 hr, 1 hr after treatment with compound.
[6] abbreviates: TR FRET IC50 1 hr (nM), 1 hr after treatment with compound.

Each structure is given as a SMILES string. Read-outs that look alike come from different tables or passages of the source.

Regarding `CCN1C(=O)[C@@H](NC(=O)c2cccc(C(F)(F)F)c2)[C@@H](c2ccc(F)cc2)c2c(C(=O)N(CC#N)CCC(=O)OC)nn(-c3ccccc3)c21` (stereo in doubt) [Compound I-288], the “% Adduct Formation” value in assay [1] is “+++ (MS Emax % adduct formation greater than 80.0 and less than or equal to 100.0)”. For the same molecule, the IC50 is at most 100 nM in assay [2] (Homo sapiens, TF-1, 3 h); at most 200 nM in assay [3] (setting [4]); at most 200 nM in assay [3] (setting [5]).

Take `CCN1C(=O)[C@@H](NC(=O)c2cccc(C(F)(F)F)c2)[C@@H](c2ccc(F)cc2)c2c(C(=O)N(CC#N)CCCN(C)C)nn(-c3ccccc3)c21` (racemic) [Compound I-271]: the “% Adduct Formation” value in assay [1] was “+++ (MS Emax % adduct formation greater than 80.0 and less than or equal to 100.0)”. Further, the IC50 is at most 100 nM in assay [2] (Homo sapiens, TF-1, 3 h); at most 200 nM in assay [3] (setting [4]); at most 200 nM in assay [3] (setting [5]).

On to `N#C[C@@H]1C[C@H]2C[C@H]2N1C(=O)c1nn(C2CCOCC2)c2c1[C@H](C1CC1)[C@H](NC(=O)c1cccc(C(F)(F)F)c1)C(=O)N2C1CC1` [Compound I-388, N-((4S,5S)-3-((1R,3S,5R)-3-cyano-2-azabicyclo[3.1.0]hexane-2-carbonyl)-4,7-dicyclopropyl-6-oxo-1-(tetrahydro-2H-pyran-4-yl)-4,5,6,7-tetrahydro-1H-pyrazolo[3,4-b]pyridin-5-yl)-3-(trifluoromethyl)benzamide], for which the “% Adduct Formation” value in assay [1] was “++ (MS Emax % adduct formation greater than 30.0 and less than or equal to 80.0)”. Besides, the IC50 was at most 100 nM in assay [2] (Homo sapiens, TF-1, 3 h); at most 200 nM in assay [3] (setting [4]); at most 200 nM in assay [3] (setting [5]).

Take `CCN1C(=O)[C@@H](NC(=O)c2cccc(C(F)(F)F)c2)[C@@H](c2ccc(F)cc2)c2c(C(=O)N(C)[C@@H](C#N)CCN3CCN(C4COC4)CC3)nn(-c3ccccc3)c21` [Compound I-317]: the “% Adduct Formation” value in assay [1] is “+++ (MS Emax % adduct formation greater than 80.0 and less than or equal to 100.0)”. Also, the 50% inhibitory concentration (IC50) in assay [2] (Homo sapiens, TF-1, 3 h) was at most 100 nM; in assay [3] (setting [4]), at most 200 nM; in assay [3] (setting [5]) it was at most 200 nM.

Take `CCN1C(=O)[C@@H](NC(=O)c2cccc(C(F)(F)F)c2)[C@@H](c2ccc(F)cc2)c2c(C(=O)N(C)[C@@H](C#N)CCN(C)C3COC3)nn(-c3ccccc3)c21` (single isomer, unassigned) [Compound I-311]: the “% Adduct Formation” value in assay [1] was “+ (MS Emax % adduct formation greater than or equal to 0.0 and less than or equal to 30.0)”. For the same molecule, the IC50 is at most 100 nM in assay [2] (Homo sapiens, TF-1, 3 h); at most 200 nM in assay [3] (setting [4]); at most 200 nM in assay [3] (setting [5]).

For the molecule `CCN1C(=O)[C@@H](NC(=O)c2cccc(C(F)(F)F)c2)[C@@H](c2ccc(F)cc2)c2c(C(=O)N(CC#N)CCO)nn(-c3ccccc3)c21` (stereo in doubt) [Compound I-286], the “% Adduct Formation” value in assay [1] is “+ (MS Emax % adduct formation greater than or equal to 0.0 and less than or equal to 30.0)”. For the same molecule, the IC50 is at most 100 nM in assay [2] (Homo sapiens, TF-1, 3 h); at most 200 nM in assay [3] (setting [4]); at most 200 nM in assay [3] (setting [5]).

On to `CCN1C(=O)[C@@H](NC(=O)c2cccc(C(F)(F)F)c2)[C@@H](c2ccc(F)cc2)c2c(C(=O)N3CCC[C@H]3C#N)nn(-c3cccc(OCCN4CCN(C5COC5)CC4)c3)c21` [Compound I-340], for which the “% Adduct Formation” value in assay [1] is “+++ (MS Emax % adduct formation greater than 80.0 and less than or equal to 100.0)”. In addition, the IC50 in assay [2] (Homo sapiens, TF-1, 3 h) was at most 100 nM; in assay [3] (setting [4]), at most 200 nM; in assay [3] (setting [5]) it was at most 200 nM.

Regarding `C=C(CN1CC2(COC2)C1)C(=O)NCc1nn(-c2ccccc2)c2c1[C@H](c1ccc(F)cc1)[C@H](NC(=O)c1cccc(C(F)(F)F)c1)C(=O)N2CC` [Compound I-138], in assay [1], the “% Adduct Formation” value is “+++ (MS Emax % adduct formation greater than 80.0 and less than or equal to 100.0)”. The IC50 in assay [2] (Homo sapiens, TF-1, 3 h) is at most 100 nM; in assay [3] (setting [4]) it was at most 200 nM; in assay [3] (setting [5]), at most 200 nM.

As for `CCN1C(=O)[C@@H](NC(=O)c2cccc(C(F)(F)F)c2)[C@@H](c2ccc(F)cc2)c2c(C(=O)N3CCC[C@H]3C#N)nn(-c3cccc(OCCN4CCC5(CC4)COC5)c3)c21` [Compound I-341], in assay [1], the “% Adduct Formation” value is “+++ (MS Emax % adduct formation greater than 80.0 and less than or equal to 100.0)”. Besides, the IC50 in assay [2] (Homo sapiens, TF-1, 3 h) was at most 100 nM; in assay [3] (setting [4]), at most 200 nM; in assay [3] (setting [5]), at most 200 nM.

Consider `CCN1C(=O)[C@@H](NC(=O)c2cccc(C(F)(F)F)c2)[C@@H](c2ccc(F)cc2)c2c(C(=O)N(C)[C@@H](C#N)CCO)nn(-c3ccccc3)c21` (relative stereo) [Compound I-290, (4S,5S)—N-[(1R*)-1-cyano-3-hydroxypropyl]-7-ethyl-4-(4-fluorophenyl)-N-methyl-6-oxo-1-phenyl-5-[3-(trifluoromethyl)benzamido]-4H,5H-pyrazolo[3,4-b]pyridine-3-carboxamide], for which, in assay [1], the “% Adduct Formation” value is “+ (MS Emax % adduct formation greater than or equal to 0.0 and less than or equal to 30.0)”. In addition, the IC50 in assay [2] (Homo sapiens, TF-1, 3 h) is at most 100 nM; in assay [3] (setting [4]) it was at most 200 nM; in assay [3] (setting [6]), at most 200 nM.

As for `CCN1C(=O)[C@@H](NC(=O)c2cccc(C(F)(F)F)c2)[C@@H](c2ccc(F)cc2)c2c(C(=O)N(C)[C@H](C#N)CCN3CCOCC3)nn(-c3ccccc3)c21` [Compound I-308], in assay [1], the “% Adduct Formation” value is “+++ (MS Emax % adduct formation greater than 80.0 and less than or equal to 100.0)”. In addition, the IC50 in assay [2] (Homo sapiens, TF-1, 3 h) was at most 100 nM; in assay [3] (setting [4]) it was at most 200 nM; in assay [3] (setting [5]) it was at most 200 nM.

On to `CCN1C(=O)[C@@H](NC(=O)c2cccc(C(F)(F)F)n2)[C@@H](c2ccc(F)cc2)c2c(C(=O)N3CCC[C@H]3C#N)nn(C3CCOCC3)c21` [Compound I-332], for which the “% Adduct Formation” value in assay [1] is “+++ (MS Emax % adduct formation greater than 80.0 and less than or equal to 100.0)”. Also, the IC50 is at most 100 nM in assay [2] (Homo sapiens, TF-1, 3 h); at most 200 nM in assay [3] (setting [4]); 200 to 1000 nM in assay [3] (setting [6]).

Regarding `N#C[C@@H]1C[C@H]2C[C@H]2N1C(=O)c1nn(C2CCOCC2)c2c1[C@H](C1CC1)[C@H](NC(=O)c1cccc(C(F)(F)F)c1)C(=O)N2` (mixture of isomers) [Compound I-385], the “% Adduct Formation” value in assay [1] was “+++ (MS Emax % adduct formation greater than 80.0 and less than or equal to 100.0)”. The IC50 in assay [2] (Homo sapiens, TF-1, 3 h) was at most 100 nM; in assay [3] (setting [4]) it was at most 200 nM; in assay [3] (setting [6]) it was 1000 to 3000 nM.

For `CCN1C(=O)[C@@H](NC(=O)c2cccc(C(F)(F)F)c2)[C@@H](c2ccc(F)cc2)c2c(C(=O)N(CC#N)CCN3CCN(C4COC4)CC3)nn(-c3ccccc3)c21` [Compound I-323], the “% Adduct Formation” value in assay [1] is “+++ (MS Emax % adduct formation greater than 80.0 and less than or equal to 100.0)”. The IC50 in assay [2] (Homo sapiens, TF-1, 3 h) is at most 100 nM; in assay [3] (setting [4]) it was at most 200 nM; in assay [3] (setting [5]) it was at most 200 nM.

Consider `CCN1C(=O)[C@@H](NC(=O)c2cccc(C(F)(F)F)c2)[C@@H](c2ccc(F)cc2)c2c(C(=O)N(CC#N)CC#N)nn(-c3ccccc3)c21` [Compound I-302], for which, in assay [1], the “% Adduct Formation” value was “+++ (MS Emax % adduct formation greater than 80.0 and less than or equal to 100.0)”. Also, the IC50 in assay [2] (Homo sapiens, TF-1, 3 h) was at most 100 nM; in assay [3] (setting [4]), at most 200 nM; in assay [3] (setting [5]), at most 200 nM.

With `CCN1C(=O)[C@@H](NC(=O)c2cccc(C(F)(F)F)c2)[C@@H](c2ccc(F)cc2)c2c(C(=O)N(C)[C@H](C#N)CCN3CCN(C4COC4)CC3)nn(-c3ccccc3)c21` [Compound I-316], in assay [1], the “% Adduct Formation” value is “+++ (MS Emax % adduct formation greater than 80.0 and less than or equal to 100.0)”. Also, the IC50 in assay [2] (Homo sapiens, TF-1, 3 h) was at most 100 nM; in assay [3] (setting [4]) it was at most 200 nM; in assay [3] (setting [5]), at most 200 nM.

As to `CCN1C(=O)[C@@H](NC(=O)c2cccc(C(F)(F)F)c2)[C@@H](c2ccc(F)cc2)c2c(C(=O)N(C)[C@H](C#N)CCN(C)C3COC3)nn(-c3ccccc3)c21` [Compound I-310], in assay [1], the “% Adduct Formation” value is “+++ (MS Emax % adduct formation greater than 80.0 and less than or equal to 100.0)”. Moreover, the IC50 in assay [2] (Homo sapiens, TF-1, 3 h) is at most 100 nM; in assay [3] (setting [4]) it was at most 200 nM; in assay [3] (setting [5]), at most 200 nM.

As to `C=C(CN1C[C@@H]2C[C@H]1CO2)C(=O)NCc1nn(-c2ccccc2)c2c1[C@H](c1ccc(F)cc1)[C@H](NC(=O)c1cccc(C(F)(F)F)c1)C(=O)N2CC` (mixture of isomers) [Compound I-12], the “% Adduct Formation” value in assay [1] was “+++ (MS Emax % adduct formation greater than 80.0 and less than or equal to 100.0)”. Also, the IC50 in assay [2] (Homo sapiens, TF-1, 3 h) was at most 100 nM; in assay [3] (setting [4]), at most 200 nM; in assay [3] (setting [5]), at most 200 nM.

In the case of `CCN1C(=O)[C@@H](NC(=O)c2cccc(C(F)(F)F)c2)[C@@H](c2ccc(F)cc2)c2c(C(=O)N(C)CC#N)nn(-c3ccccc3)c21` (racemic) [Compound I-282], in assay [1], the “% Adduct Formation” value is “+++ (MS Emax % adduct formation greater than 80.0 and less than or equal to 100.0)”. For the same molecule, the IC50 in assay [2] was at most 100 nM; in assay [3] (setting [4]), at most 200 nM; in assay [3] (setting [5]), at most 200 nM.

Take `CCN1C(=O)[C@@H](NC(=O)c2ccn(C(F)(F)F)n2)[C@@H](c2ccc(F)cc2)c2c(C(=O)N3CCOC[C@H]3C#N)nn(-c3ccccc3)c21` [Compound I-345]: in assay [1], the “% Adduct Formation” value was “+++ (MS Emax % adduct formation greater than 80.0 and less than or equal to 100.0)”. In addition, the IC50 in assay [2] (Homo sapiens, TF-1, 3 h) was at most 100 nM; in assay [3] (setting [4]), at most 200 nM; in assay [3] (setting [6]), 200 to 1000 nM.
